We go through 5 compounds from patent US11827917B1, “Methods for the conversion of fermentable sugars to ethanol” (Colorado State University Research Foundation, priority 2020, dated 2023).

Holding throughout (format): cell-based, Saccharomyces cerevisiae
Assay [1] has as its system S. cerevisiae JAY 270. Kind of assay: Screening of growth in 24-well plates on YPDA. Particulars: for Cell growth score (colony size): YPDA, 30° C., 24 h; for Effect on cell growth in the plate assay (words): tested concentrations, 24-well plates. As to the method: Procedure: An inoculum culture of S. cerevisiae JAY 270 was grown in 100 mL of yeast extract-peptone-dextrose (YPD) medium (10 g/L yeast extract, 20 g/L peptone, 20 g/L glucose) in 200-mL serum bottles overnight in a shaker at 30° C. and 200 rpm. The cells were collected by centrifuging 10 min at 4000×g and 4° C. To wash off the medium residue, the cell pellet was resuspended in 30 mL of sterile 0.8% (w/v) NaCl solution and centrifuged at 4000×g for 10 min. The cell pellet was washed twice. Finally, the cell pellet was resuspended and diluted in 0.8% (w/v) NaCl to achieve cell concentrations of OD600=0.02 and 0.2.
The eight compounds were added in YPDA separately at 0.03%, 0.05%, 0.1%, and 0.2% (w/v). The standard control treatment contained only YPDA medium without addition of these compounds. Since the TrpOH and TyrOH stock solutions were dissolved in DMSO, the controls for those tests were YPDA with the same concentration of DMSO. A 3-mL aliquot of YPDA medium with or without the test compounds were loaded in each well of the 24-well plate.
Ten μL of the prepared S. cerevisiae JAY 270 cell suspension at OD600=0.02 or 0.2 was loaded onto the YPDA medium in each well of the 24-well plates. Then the plates were sealed with Parafilm and incubated at 30° C. for 24 h. There were four biological replicates for each treatment.
Yeast cell growth was evaluated by visual observation of the colony size in the well and scored as 0, +, ++, and +++.

In assay [2] the test system is S. cerevisiae JAY 270. Kind of assay: Growth test in liquid YNB medium, low/high nitrogen, serum bottles. Particulars: 40, 200, 1000 mg/L; low and high nitrogen media. The method, then:
A second set of tests was performed in a defined liquid medium, Yeast Nitrogen Base with Glucose (YNB), containing (NH4)2SO4 at either low (1 mM) or high (10 mM) nitrogen content. […] All serum bottles were incubated in a shaker at 30° C. and 150 RPM. Each treatment was performed in biological duplicate. Samples were collected at 0, 5, and 10 hours.

The subject of assay [3] is S. cerevisiae JAY 270. Kind of assay: Serum-bottle cultivation in YPD: biomass, glycerol, ethanol yields. Particulars: YPD, serum bottles. As to the method:
Procedure: Cultivations in serum bottles were used to determine the effect of the best-performing screened chemicals on the ethanol yield. S. cerevisiae JAY 270 was pre-cultured in 100 mL of YPD medium in 200-mL serum bottles overnight in a shaker at 30° C. and 200 rpm. The precultured yeast cells were collected and washed twice as described above. The cell pellet was resuspended in about 10 mL of 0.8% (w/v) NaCl and the cell concentration was estimated as OD600. TyrOH, PheOH, and TrpOH were added to 30 mL of YPD medium in 100-mL serum bottles at 0.05% and 0.2% respectively. The same amount of DMSO was added to YPD medium to serve as the control for TrpOH and TyrOH treatments. The bottles were inoculated with the prepared yeast cells to obtain an initial cell concentration of OD600=0.2. The serum bottles were sealed and cultured in a shaker at 30° C. and 200 rpm for 24 h. Each condition had three biological replicates.
Analytical methods: Cell growth was evaluated by monitoring OD600 and cell dry mass concentration. For dry mass measurements, 1.0 mL of culture was transferred to a pre-dried and pre-weighed 2-mL centrifuge tube. The tubes were centrifuged for 10 min at 14000 rpm using a microcentrifuge, and then the cell pellets were dried in an oven for 3 days at 65° C. The cell dry mass was determined by subtracting the initial tube mass from the dried mass of tube with cells. The concentrations of glucose, ethanol, and glycerol were measured via HPLC (Shimadzu LC20A series) outfitted with a refractive index detector and using an Aminex HPX-87H (300×7.8 mm) organic acid column and Cation H+ guard cartridge (Bio Rad Laboratories, Hercules, CA). The column was maintained at 65° C. and the mobile phase was 5 mM sulfuric acid with a flow rate of 0.6 mL/min. Standard compound solutions were used to calibrate the HPLC. Each sample was analyzed three times by HPLC.

Molecules are shown by their SMILES. “Also recorded” adds a separate entry of the source. Marks after values point to notes of the source that are not given here.

Take `Nc1nc[nH]n1` [3-amino-1,2,4-triazole]: the “Cell growth score (colony size)” value with S. cerevisiae JAY 270 [1] (0.03% (w/v)), in the assay on S. cerevisiae JAY 270 [1] (0.05% (w/v)), in the assay on S. cerevisiae JAY 270 [1] (0.10% (w/v)) and in the assay on S. cerevisiae JAY 270 [1] (0.20% (w/v)) was “+++” each time. In addition, the “Effect on cell growth in the plate assay (words)” value (“Effect on cell growth” for short) with S. cerevisiae JAY 270 [1] is recorded as “did not inhibit cell growth”.
Consider `OB(O)O` [Boric acid, reference compound], for which, in the assay on S. cerevisiae JAY 270 [1] (0.03% (w/v)), the “Cell growth score (colony size)” value is reported as “+++”. For the same compound, the “Cell growth score (colony size)” value in the assay with S. cerevisiae JAY 270 [1] (0.05% (w/v)) was “+++”. For the same compound, the “Cell growth score (colony size)” value in the assay with S. cerevisiae JAY 270 [1] (0.10% (w/v)) was “++”. In addition, the “Cell growth score (colony size)” value with S. cerevisiae JAY 270 [1] (0.20% (w/v)) is “+”. Also, the “Effect on cell growth” value in the assay on S. cerevisiae JAY 270 [1] is “inhibited growth; also recorded: reduced the growth”. Besides, the “Inhibitory effect on yeast cell growth in liquid YNB medium” value in the assay on S. cerevisiae JAY 270 [2] is reported as “little or no growth inhibition effects”. Also, in the assay on S. cerevisiae JAY 270 [3] (0.05% (w/v)), the Biomass Yield is reported as 0.137 + 0.001 g/g, the “Biomass yield % change vs. control” value is given as 0%, the EtOH yield was found to be 0.41 ± 0.00 g/g and the “EtOH yield % change vs. control” value is recorded as 0%. Moreover, in the assay with S. cerevisiae JAY 270 [3] (0.05% (w/v)), the Glycerol yield is recorded as 0.024 ± 0.001 g/g and the “Glycerol yield % change vs. control” value is 0%. For the same compound, in the assay on S. cerevisiae JAY 270 [3] (0.05%), the “Biomass yield vs. reference” value is on record as 0%, the Ethanol yield amounted to 0.41 ± 0.00 g/g, the “Ethanol yield vs. reference” value stood at 0% and the Glycerol yield turned out to be 0.024 ± 0.001 g/g. Besides, in the assay on S. cerevisiae JAY 270 [3] (0.05%), the “Glycerol yield vs. reference” value was −6.3% and the OD600 was 4.78. Further, in the assay on S. cerevisiae JAY 270 [3] (0.05 and 0.2%), the “Effect on ethanol yield” value is given as “did not affect ethanol yield”. Besides, in the assay on S. cerevisiae JAY 270 [3] (0.2% (w/v)), the Biomass Yield is 0.116 + 0.001 g/g, the “Biomass yield % change vs. control” value is reported as −15* %, the EtOH yield was 0.41 ± 0.00 g/g and the “EtOH yield % change vs. control” value came to 0%. Further, in the assay on S. cerevisiae JAY 270 [3] (0.2% (w/v)), the Glycerol yield amounted to 0.027 ± 0.001 g/g and the “Glycerol yield % change vs. control” value is 6.9%. Further, in the assay with S. cerevisiae JAY 270 [3] (0.2%), the “Biomass yield vs. reference” value is on record as −15.3%, the Ethanol yield came out at 0.41 ± 0.00 g/g, the “Ethanol yield vs. reference” value came out at 0% and the Glycerol yield is 0.027 ± 0.000 g/g. In the assay on S. cerevisiae JAY 270 [3] (0.2%), the “Glycerol yield vs. reference” value is reported as 6.9% and the OD600 is recorded as 3.96.
In the case of `C[C@@H]1C[C@@H]([C@H](O)CC2CC(=O)NC(=O)C2)C(=O)[C@@H](C)C1` [Cycloheximide, cycloheximide, reference compound], in the assay with S. cerevisiae JAY 270 [1] (0.03% (w/v)), the “Cell growth score (colony size)” value is 0. In addition, the “Cell growth score (colony size)” value in the assay on S. cerevisiae JAY 270 [1] (0.05% (w/v)) is 0. In the assay with S. cerevisiae JAY 270 [1] (0.10% (w/v)), the “Cell growth score (colony size)” value stood at 0. The “Cell growth score (colony size)” value in the assay with S. cerevisiae JAY 270 [1] (0.20% (w/v)) came out at 0. In the assay on S. cerevisiae JAY 270 [1], the “Effect on cell growth” value is “inhibited all cell growth at all tested concentrations”. Further, the “Effect on cell growth” value in the assay on S. cerevisiae JAY 270 [1] (listed as cycloheximide) is reported as “inhibited growth; also recorded: reduced the growth”. For the same compound, in the assay with S. cerevisiae JAY 270 [3] (0.1 mg/L), the “Biomass yield % change vs. control” value is −12* %, the “Biomass yield vs. reference” value is −36.1%, the “Effect on ethanol yield” value is “slight decrease of ethanol yield” and the EtOH yield was found to be 0.42 ± 0.01 g/g. Further, in the assay on S. cerevisiae JAY 270 [3] (0.1 mg/L), the “EtOH yield % change vs. control” value was −3.5%, the Ethanol yield stood at 0.42 ± 0.01 g/g, the “Ethanol yield vs. reference” value is recorded as 0% and the “Glycerol yield % change vs. control” value is on record as −48* %. In the assay with S. cerevisiae JAY 270 [3] (0.1 mg/L), the “Glycerol yield vs. reference” value turned out to be 0.4% and the OD600 is given as 2.82. Moreover, in the assay with S. cerevisiae JAY 270 [3] (0.4 mg/L), the OD600 is reported as 0.22.
As for `CC(C)=CCCC(C)=CCCC(C)=CCO` [Farnesol, farnesol], the “Cell growth score (colony size)” value with S. cerevisiae JAY 270 [1] (0.03% (w/v)), in the assay with S. cerevisiae JAY 270 [1] (0.05% (w/v)), with S. cerevisiae JAY 270 [1] (0.10% (w/v)) and in the assay on S. cerevisiae JAY 270 [1] (0.20% (w/v)) was “+++” each time. Also, the “Effect on cell growth” value in the assay with S. cerevisiae JAY 270 [1] is “did not inhibit cell growth”.
Take `CP(=O)(O)CCC(N)C(=O)O` (stereo not drawn) [Glufosinate ammonium, glufosinate ammonium]: the “Cell growth score (colony size)” value with S. cerevisiae JAY 270 [1] (0.03% (w/v)), in the assay with S. cerevisiae JAY 270 [1] (0.05% (w/v)), in the assay with S. cerevisiae JAY 270 [1] (0.10% (w/v)) and with S. cerevisiae JAY 270 [1] (0.20% (w/v)) was “+++” throughout. In the assay on S. cerevisiae JAY 270 [1], the “Effect on cell growth” value is reported as “did not inhibit cell growth”.
